Reference: paper PMC6116703, “Ethenesulfonyl fluoride derivatives as telomerase inhibitors: structure-based design, SAR, and anticancer evaluation in vitro” (Journal of Enzyme Inhibition and Medicinal Chemistry, 2018)
Like-named read-outs stand apart in the source and are kept apart here.

What was measured:
[1] = tested on: human hepatoma cell SMMC-7721; assay: Cell proliferation (MTT) assay, SMMC-7721; assay type: cell-based; details: Homo sapiens, read-out: IC50 SMMC-7721
Procedure: (§1) The antiproliferative activities evaluation was conducted by using a modified procedure as described in the literature. Briefly, target tumour cells were grown to log phase in RPMI 1640 medium supplemented with 10% fetal bovine serum. After diluting to 3 × 10^4 cells mL^−1 with the complete medium, 100 µL of the obtained cell suspension was added to each well of 96-well culture plates. The subsequent incubation was performed at 37 °C, 5% CO2 atmosphere for 24 h before subjecting to antiproliferation assessment. The tested samples at pre-set concentrations were added to six wells with Doxorubicin (AMD) co-assayed as a positive reference. After 48 h of exposure period, 25 µL of PBS containing 2.5 mg·mL^−1 of MTT was added to each well. After 4 h, the medium was replaced by 150 µL DMSO to dissolve the purple formazan crystals produced. The absorbance at 570 nm of each well was measured using an ELISA plate reader. The data represented the mean of three experiments in triplicate and were expressed as means ± SD using Student’s test.

[2] = tested on: human gastric cancer cells MGC-803; assay: Cell proliferation (MTT) assay, MGC-803; assay type: cell-based; details: Homo sapiens, read-out: IC50 MGC-803
Procedure: as §1

[3] = tested on: human breast cancer cell MDA-MB-231; assay: Cell proliferation (MTT) assay, MDA-MB-231; assay type: cell-based; details: Homo sapiens, MDA-MB-231, 48 h
Procedure: as §1

[4] = tested on: human gastric cancer cells SGC-7901; assay: Cell proliferation (MTT) assay, SGC-7901; assay type: cell-based; details: Homo sapiens, read-out: IC50 SGC-7901
Procedure: as §1

human melanoma cell A375 = assay: Cell proliferation (MTT) assay, A375; assay type: cell-based
Procedure: as §1

[5] = tested on: human normal liver cell (L-02); assay: Proliferative inhibition assay of human normal cell L-02 (MTT); assay type: cell-based; details: normal liver cells
Procedure: as §1
(§2) In order to determine the selective cancer cell toxicity of some title compounds. We subsequently conducted a proliferative inhibition assay with human normal liver cell (L-02) and gastric mucosa cell (GES-1).

telomerase = target: T1, telomerase (Homo sapiens, UniProt O14746); assay: Telomerase activity TRAP-PCR-ELISA assay (A375 cell extract); assay type: biochemical
T1 construct: endogenous in cells; host or cells: A375 human melanoma cells
Procedure: Thirty-six compounds were tested in a search for inhibitors of telomerase activity using the TRAP-PCR-ELISA assay. In detail, the A375 cells were firstly maintained in RPMI 1640 buffer (Hyclone, Miami, FL), supplemented with 10% fetal bovineserum (GIBCO, New York, NY), streptomycin (0.1 mg/mL) and penicillin (100 IU/mL) at 37 °C in a humidified atmosphere containing 5% CO2. After trypsinisation, 5 × 10^4 cultured cells in logarithmic growth were seeded into T25 flasks (Corning, New York, NY) and cultured to allow to adherence. […] After 24 h treatment, the cells were harvested by cell scraper orderly followed by washing once with PBS. The cells were lysed in 150 µL RIPA cell lysis buffer (Santa Cruz, Santa Cruz, CA), and incubated on ice for 30 min. The cellular supernatants were obtained via centrifugation at 12,000g for 20 min at 4 °C and stored at –80 °C. The TRAP-PCR-ELISA assay was performed using a telomerase detection kit (Roche, Basel, Switzerland) according to the manufacturer’s protocol. In brief, 2 µL of cell extracts were mixed with 48 µL TRAP reaction mixtures. TRAP primers and Taq polymerase are incubated at 25 °C for 30 min. PCR was then initiated at 94 °C, 120 s for predenaturation and performed using 35 cycles each consisting of 94 °C for 30 s, 50 °C for 30 s, 72 °C for 90 s. Then 20 µL of PCR products were hybridised to a digoxigenin (DIG)-labelled telomeric repeat specific detection probe. And the PCR products were immobilised via the biotin-labelled primer to a streptavidin-coated microtiter plate subsequently. The immobilised DNA fragments were detected with a peroxidase-conjugated anti-DIG antibody and visualised following the addition of the stop regent. The microtitre plate was assessed on TECAN Infinite M200 microplate reader (Mannedorf, Switzerland) at a wavelength of 490 nm, and the final value were presented as mean ± SD[23].

[6] = tested on: gastric mucosa cell (GES-1); assay: Proliferative inhibition assay of human normal cell GES-1 (MTT); assay type: cell-based
Procedure: as §1, §2

[7] = read-out: IC50 MDA-MB-231, antiproliferative, MTT, 48 h exposure
[8] = IC50 inhibitory activity against telomerase, TRAP-PCR-ELISA, A375 cells, 24 h treatment
[9] = Homo sapiens, A-375, 48 h, read-out: IC50 A375, antiproliferative, MTT, 48 h exposure
[10] = Homo sapiens, GES1, normal gastric mucosa cells
[11] = read-out: IC50 A375, antiproliferative, MTT, 48 h exposure

T1 sequence (O14746 whole entry): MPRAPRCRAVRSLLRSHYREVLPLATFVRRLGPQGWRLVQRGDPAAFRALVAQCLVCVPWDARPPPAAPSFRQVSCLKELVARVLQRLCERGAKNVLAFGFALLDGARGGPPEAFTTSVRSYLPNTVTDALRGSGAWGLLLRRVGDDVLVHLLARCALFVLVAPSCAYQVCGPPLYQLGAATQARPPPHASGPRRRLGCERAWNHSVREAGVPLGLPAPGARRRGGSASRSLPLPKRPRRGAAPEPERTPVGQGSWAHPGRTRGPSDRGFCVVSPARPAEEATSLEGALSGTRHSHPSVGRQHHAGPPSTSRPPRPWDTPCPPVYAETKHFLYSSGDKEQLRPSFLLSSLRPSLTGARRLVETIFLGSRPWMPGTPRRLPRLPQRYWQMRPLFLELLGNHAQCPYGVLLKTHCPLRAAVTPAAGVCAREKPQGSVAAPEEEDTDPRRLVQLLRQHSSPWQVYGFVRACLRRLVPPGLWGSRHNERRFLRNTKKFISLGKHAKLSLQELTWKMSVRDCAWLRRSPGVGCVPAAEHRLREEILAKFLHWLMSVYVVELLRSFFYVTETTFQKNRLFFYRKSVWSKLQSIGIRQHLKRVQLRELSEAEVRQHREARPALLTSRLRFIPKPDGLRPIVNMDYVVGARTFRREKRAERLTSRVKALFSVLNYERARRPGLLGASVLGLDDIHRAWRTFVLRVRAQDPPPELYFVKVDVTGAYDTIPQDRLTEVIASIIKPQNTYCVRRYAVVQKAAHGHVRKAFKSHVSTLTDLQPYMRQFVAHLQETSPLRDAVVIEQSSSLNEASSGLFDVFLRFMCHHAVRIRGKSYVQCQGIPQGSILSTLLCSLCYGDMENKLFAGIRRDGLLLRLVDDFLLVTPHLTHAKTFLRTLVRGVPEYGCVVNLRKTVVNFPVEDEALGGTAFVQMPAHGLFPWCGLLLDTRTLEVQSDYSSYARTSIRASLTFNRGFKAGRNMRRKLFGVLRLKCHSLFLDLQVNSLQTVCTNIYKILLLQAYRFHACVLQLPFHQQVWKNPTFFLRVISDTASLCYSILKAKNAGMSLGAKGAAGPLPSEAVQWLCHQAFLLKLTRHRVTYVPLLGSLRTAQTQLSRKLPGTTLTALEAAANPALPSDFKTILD

Structure (SMILES)	IC50 ([5]; Homo sapiens)	IC50 [3, 7]	IC50 (telomerase; [8])	IC50 (human melanoma cell A375; [9])	IC50 [6, 10]	IC50 ([1]; SMMC-7721, 48 h)	IC50 ([4]; SGC-7901, 48 h)	also measured
COc1cccc2c1C(=O)c1c(O)c3c(c(O)c1C2=O)C[C@@](O)(C(=O)CO)C[C@@H]3O[C@H]1C[C@H](N)[C@H](O)[C@H](C)O1 [AMD, Doxorubicin, reference compound]	–	–	–	–	–	–	–	IC50 ([1]; SMMC-7721, antiproliferative, MTT, 48 h exposure): 1.05 ± 0.09 µM; IC50 ([2]; MGC-803, antiproliferative, MTT, 48 h exposure): 0.67 ± 0.08 µM; IC50 ([3]; antiproliferative, MTT, 48 h exposure, read-out: IC50 MDA-MB-231): 0.81 ± 0.11 µM; IC50 ([4]; SGC-7901, antiproliferative, MTT, 48 h exposure): 0.92 ± 0.08 µM; IC50 (human melanoma cell A375; Homo sapiens, A-375, 48 h, antiproliferative, MTT, 48 h exposure, read-out: IC50 A375): 0.52 ± 0.14 µM
O=S(=O)(F)/C=C/c1ccccc1 [Compound 1]	1970 ± 200 µM	8.67 ± 0.61 µM	2.41 ± 0.51 µM	5.21 ± 0.39 µM	1450 ± 170 µM	–	–	–
O=S(=O)(F)/C=C/c1ccc(-c2ccccc2)cc1 [Compound 5]	1330 ± 150 µM	8.39 ± 0.89 µM	0.71 ± 0.28 µM	5.84 ± 0.33 µM	2000 ± 250 µM	4.05 ± 0.2 µM	32.9 ± 1.85 µM	telomerase potency relative to positive control staurosporine (telomerase; ratio of telomerase IC50 values vs staurosporine): 12 times
O=Cc1ccc(/C=C/S(=O)(=O)F)cc1 [Compound 15]	2110 ± 190 µM	3.64 ± 0.22 µM	1.87 ± 0.41 µM	13.1 ± 0.7 µM	2500 ± 220 µM	–	–	–
CC(=O)c1ccccc1/C=C/S(=O)(=O)F [Compound 25]	2450 ± 250 µM	–	–	–	2800 ± 310 µM	–	–	IC50 inhibitory activity against telomerase (telomerase; TRAP-PCR-ELISA, A375 cells, 24 h treatment): no
O=S(=O)(F)/C=C/c1ccc2ccccc2c1 [Compound 31]	1410 ± 100 µM	24.1 ± 1.18 µM	0.81 ± 0.07 µM	~3 µM	1650 ± 180 µM	33.5 ± 0.88 µM	–	IC50 (human melanoma cell A375; [11]): 3.49 ± 0.2 µM
Cc1ccc(S(=O)(=O)n2c3ccccc3c3cc(/C=C/S(=O)(=O)F)ccc32)cc1 [Compound 46]	2060 ± 180 µM	–	–	1.25 ± 0.07 µM	1820 ± 110 µM	5.37 ± 0.11 µM	–	IC50 (telomerase; read-out: IC50 inhibitory activity against telomerase, TRAP-PCR-ELISA, A375 cells, 24 h treatment): 1.12 ± 0.27 µM
O=S(=O)(F)/C=C/C=C/c1ccc(/C=C/S(=O)(=O)F)cc1 [Compound 57, (1E,3E)-4-(4-((E)-2-(fluorosulfonyl)vinyl)phenyl)buta-1,3-diene-1-sulfonyl fluoride]	< 2000 µM	3.22 ± 0.18 µM	0.97 ± 0.12 µM	~3 µM	< 2000 µM	–	–	IC50 [5]: 2010 ± 160 µM; IC50 (human melanoma cell A375; [11]): 1.58 ± 0.06 µM; IC50 ([6]; normal gastric mucosa cells): 2190 ± 180 µM
COc1cc(/C=C/S(=O)(=O)F)cc(OC)c1 [Compound 67]	–	12.1 ± 0.37 µM	1.87 ± 0.47 µM	8.29 ± 0.42 µM	–	15 ± 0.6 µM	50.3 ± 1.17 µM	IC50 ([2]; MGC-803, 48 h): 16.1 ± 0.82 µM
O=S(=O)(F)/C=C/c1cc(Cl)cc(Cl)c1 [Compound 69]	–	7.95 ± 0.4 µM	4.22 ± 0.71 µM	8.79 ± 0.61 µM	–	11.5 ± 0.39 µM	36.8 ± 1.25 µM	IC50 ([2]; MGC-803, 48 h): 25.1 ± 0.54 µM
O=S(=O)(F)/C=C/c1cccc(/C=C/S(=O)(=O)F)c1 [Compound 70]	–	4.22 ± 0.2 µM	1.01 ± 0.13 µM	~3 µM	–	3 ± 0.18 µM	5.38 ± 0.3 µM	IC50 ([2]; MGC-803, 48 h): 3.15 ± 0.27 µM; IC50 (human melanoma cell A375; [11]): 3.09 ± 0.19 µM
O=S(=O)(F)/C=C/c1cccc(-c2ccccc2)c1 [Compound 75]	2440 ± 220 µM	21.3 ± 1.04 µM	4.4 ± 2 µM	9.27 ± 0.91 µM	1890 ± 170 µM	32.1 ± 1.02 µM	21.9 ± 0.61 µM	–
